Laboratory results published in the supplement of paper PMC10307832.

Legend:
Test in all cases: relative viability (nuclei count vs DMSO), 5 days (fraction); higher = more cells survive
[1] = compound: CCN1C(=O)C2=CC(=C(N=C2N(C1=O)C3CC3)N)C(=O)N + C[C@]1(O)C[C@@H](c2nc(-c3ccc4ccc(-c5ccccc5)nc4c3)c3c(N)nccn32)C1 [Linsitinib] (partner 1 µM)
How it was run: (§1)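 Medians of duplicate plates are given as relative viability. That measure is the nuclei count in treated wells divided by the count in vehicle wells. Counts were taken on 4× images of lung cancer cell lines in 1536-well plates, 5 days after pin-tool dosing the day after seeding with one drug alone or a fixed anchor-drug dose plus five library-drug doses (not always all listed) in √10 steps.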

[2] = compound: CCN1C(=O)C2=CC(=C(N=C2N(C1=O)C3CC3)N)C(=O)N + Cc1nc(NC(=O)N2CCC[C@H]2C(N)=O)sc1-c1ccnc(C(C)(C)C(F)(F)F)c1 [Alpelisib] (partner 2 µM)
How it was run: as §1

[3] = compound: CCN1C(=O)C2=CC(=C(N=C2N(C1=O)C3CC3)N)C(=O)N + C[C@@H](Oc1cc(-c2cnn(C3CCNCC3)c2)cnc1N)c1c(Cl)ccc(F)c1Cl [Crizotinib] (partner 1 µM)
How it was run: as §1

[4] = compound: CCN1C(=O)C2=CC(=C(N=C2N(C1=O)C3CC3)N)C(=O)N + CS(=O)(=O)N1CCN(Cc2cc3nc(-c4cccc5[nH]ncc45)nc(N4CCOCC4)c3s2)CC1 [Pictilisib] (partner 1 µM)
How it was run: as §1

[5] = compound: CCN1C(=O)C2=CC(=C(N=C2N(C1=O)C3CC3)N)C(=O)N + CC(C)C[C@H](NC(=O)[C@H](Cc1ccccc1)NC(=O)c1cnccn1)B(O)O [Bortezomib] (partner 0.002 µM)
How it was run: as §1

| Cell Line | relative viability ([1]; first compound 0.253 µM) | relative viability ([1]; first compound 0.8 µM) | relative viability ([1]; first compound 2.53 µM) | relative viability ([1]; first compound 8 µM) | relative viability ([2]; first compound 0.253 µM) | relative viability ([2]; first compound 0.8 µM) | relative viability ([2]; first compound 2.53 µM) | relative viability ([2]; first compound 8 µM) | relative viability ([3]; first compound 0.253 µM) | relative viability ([3]; first compound 0.8 µM) | relative viability ([3]; first compound 2.53 µM) | relative viability ([3]; first compound 8 µM) | relative viability ([4]; first compound 0.253 µM) | relative viability ([4]; first compound 0.8 µM) | relative viability ([4]; first compound 2.53 µM) | relative viability ([4]; first compound 8 µM) | relative viability ([5]; first compound 0.253 µM) | relative viability ([5]; first compound 0.8 µM) | relative viability ([5]; first compound 2.53 µM) | relative viability ([5]; first compound 8 µM) |
| --- | --- | --- | --- | --- | --- | --- | --- | --- | --- | --- | --- | --- | --- | --- | --- | --- | --- | --- | --- | --- |
| HCC-15 | 0.867 | 0.908 | 0.879 | 0.913 | 0.921 | 0.959 | 0.873 | 0.986 | 0.789 | 0.829 | 0.909 | 0.872 | 0.699 | 0.79 | 0.793 | 0.801 | 0.992 | 1.11 | 0.979 | 1 |
| HCC-44 | 0.693 | 0.634 | 0.69 | 0.641 | 0.829 | 0.802 | 0.778 | 0.784 | 0.844 | 0.826 | 0.772 | 0.851 | 0.599 | 0.6 | 0.564 | 0.641 | 0.896 | 0.895 | 0.879 | 0.877 |
| HCC-78 | 0.516 | 0.434 | 0.482 | 0.675 | 0.299 | 0.337 | 0.31 | 0.467 | 0.349 | 0.327 | 0.292 | 0.379 | 0.223 | 0.173 | 0.201 | 0.205 | 0.293 | 0.479 | 0.463 | 0.516 |
| HCC-366 | 0.726 | 0.65 | 0.623 | 0.6 | 0.442 | 0.505 | 0.456 | 0.468 | 0.615 | 0.6 | 0.537 | 0.968 | 0.168 | 0.162 | 0.0835 | 0.11 | 1.03 | 1 | 1 | 0.997 |
| HCC-827 | 0.954 | 0.97 | 0.899 | 0.979 | 0.915 | 0.964 | 0.941 | 0.88 | 0.933 | 0.98 | 0.866 | 0.885 | 0.954 | 1.08 | 1.16 | 1.03 | 1.06 | 1.11 | 1.06 | 0.972 |
| HOP-62 | 0.989 | 1.09 | 0.825 | 1.05 | 1 | 1.06 | 0.778 | 0.964 | 0.891 | 0.966 | 0.983 | 0.867 | 1.01 | 0.883 | 0.413 | 0.804 | 0.914 | 0.75 | 0.754 | 0.733 |
| IA-LM | 0.629 | 0.618 | 0.492 | 0.553 | 0.743 | 0.816 | 0.584 | 0.696 | 0.816 | 0.662 | 0.797 | 1.14 | 0.358 | 0.356 | 0.343 | 0.339 | 0.826 | 0.702 | 0.807 | 0.817 |
| LC-2-ad | 0.811 | 0.805 | 0.782 | 0.899 | 0.838 | 0.897 | 0.881 | 0.914 | 0.217 | 0.433 | 0.437 | 0.537 | 0.465 | 0.409 | 0.514 | 0.506 | 0.922 | 0.965 | 1.02 | 1.07 |
| LK-2 | 0.575 | 0.612 | 0.655 | 0.616 | 0.761 | 1.36 | 1.3 | 1.13 | 0.412 | 0.226 | 0.204 | 0.153 | 0.547 | 0.507 | 0.525 | 0.556 | – | – | – | – |
| NCI-H358 | 0.718 | 0.852 | 0.682 | 0.808 | 0.795 | 0.91 | 0.819 | 0.87 | 0.642 | 0.551 | 0.525 | 0.774 | 0.4 | 0.343 | 0.284 | 0.424 | – | – | – | – |
| NCI-H1395 | 1.13 | 0.888 | 0.974 | 1.13 | 0.958 | 1.04 | 1.01 | 0.976 | – | – | – | – | 0.611 | 0.583 | 0.636 | 0.63 | – | – | – | – |
| NCI-H1650 | – | – | – | – | – | – | – | – | 0.982 | 0.897 | 1.11 | 1.2 | 0.501 | 0.547 | 0.521 | 0.589 | 0.192 | 0.185 | 0.182 | 0.187 |
| NCI-H1793 | 0.656 | 0.944 | – | 0.956 | 0.715 | 0.644 | – | 0.63 | – | – | – | – | 0.267 | 0.308 | – | 0.303 | – | – | – | – |
| NCI-H1944 | 1.19 | 1.16 | 1.02 | 1.18 | 0.826 | 0.832 | 0.749 | 0.842 | 1.06 | 1.12 | 1.01 | 1.3 | 0.354 | 0.354 | 0.342 | 0.308 | – | – | – | – |
| NCI-H2170 | – | – | – | – | 0.908 | 0.789 | 0.734 | 0.809 | 1.15 | 1.19 | 1.23 | 1.28 | 0.297 | 0.326 | 0.295 | 0.335 | – | – | – | – |
| SK-MES-1 | 1.07 | 0.984 | 1.02 | 1.13 | 0.865 | 0.917 | 0.85 | 0.962 | 1.02 | 0.966 | 0.926 | 0.946 | 0.358 | 0.403 | 0.323 | 0.37 | – | – | – | – |
